From patent publication US10023528B2, “Branched 3-phenylpropionic acid derivatives and their use” (BAYER INTELLECTUAL PROPERTY GMBH, priority 2011, dated 2018) come the findings set out here.

The test system of assay [1] is recombinant guanylate cyclase reporter cell line (CHO reporter cell). Nature of the assay: Action at a recombinant guanylate cyclase reporter cell line. It is filed as cell-based. To be noted: CHO reporter cell in vitro; read-out: MEC (minimum effective concentration), sGC-activating activity in the CHO reporter cell. As to the method:
The cellular action of the compounds according to the invention is determined at a recombinant guanylate cyclase reporter cell line, as described in F. Wunder et al., Anal. Biochem. 339, 104-112 (2005).

The target of assay [2] is soluble guanylate cyclase (sGC) (Rattus norvegicus (Rat), UniProt P20595). Description: Stimulation of sGC enzyme activity (PPi detection, luciferase). It is filed as biochemical. To be noted: sGC enzyme in vitro; for pEC50: read-out: EC50 (concentration at 50% of maximum efficacy), activating action at the sGC enzyme. Here is the method:
Soluble guanylate cyclase (sGC) converts on stimulation GTP into cGMP and pyrophosphate (PPi). PPi is detected with the aid of the assay described below. The signal produced in the assay increases as the reaction progresses and serves as a measure of the sGC enzyme activity under the given stimulation.
To carry out the assay, 29 μl of enzyme solution [0-10 nM soluble guanylate cyclase (prepared according to Hönicka et al, J. Mol. Med. 77, 14-23 (1999)) in 50 mM TEA, 2 mM MgC2, 0.1% BSA (fraction V), 0.005% Brij®, pH 7.5] are initially introduced into a microplate, and 1 μl of the substance to be tested (as a serially diluted solution in DMSO) is added. The mixture is incubated at room temperature for 10 min. Then 20 μl of detection mix [1.2 nM Firefly Luciferase (Photinus pyralis luciferase, Promega), 29 μM dehydroluciferin (prepared according to Bitler & McElroy, Arch. Biochem. Biophys. 72, 358 (1957)), 122 μM luciferin (Promega), 153 μM ATP (Sigma) and 0.4 mM DTT (Sigma) in 50 mM TEA, 2 mM MgCl2, 0.1% BSA (fraction V), 0.005% Brij®, pH 7.5] are added. The enzyme reaction is started by adding 20 μl of substrate solution [1.25 mM guanosine 5′-triphosphate (Sigma) in 50 mM TEA, 2 mM MgC2, 0.1% BSA (fraction V), 0.005% Brij®, pH 7.5] and measured continuously in a luminometer. The extent of the stimulation by the substance to be tested can be determined relative to the signal of the unstimulated reaction.
The activation of haem-free guanylate cyclase is examined by addition of 25 μM of 1H-1,2,4-oxadiazolo[4,3-a]quinoxalin-1-one (ODQ) to the enzyme solution and subsequent incubation for 30 minutes and compared to the stimulation of the native enzyme.

Assay [3] has as its system saphenous artery rings. Nature of the assay: Vasorelaxant effect in vitro (phenylephrine-contracted saphenous artery rings). It is filed as cell-based. To be noted: Oryctolagus cuniculus; rabbit saphenous artery rings, phenylephrine-induced contraction. Here is the method: Rabbits are anaesthetized and sacrificed by intravenous injection of thiopental sodium (about 50 mg/kg) and exsanguinated. The saphenous artery is removed and divided into rings 3 mm wide. The rings are mounted singly on in each case a pair of triangular hooks open at the end and made of 0.3 mm-thick special wire (Remanium®). Each ring is placed under an initial tension in 5 ml organ baths with Krebs-Henseleit solution which is at 37° C., is gassed with carbogen and has the following composition: NaCl 119 mM; KCl 4.8 mM; CaCl2×2 H2O 1 mM; MgSO4×7 H2O 1.4 mM; KH2PO4 1.2 mM; NaHCO3 25 mM; glucose 10 mM; bovine serum albumin 0.001%. The force of contraction is detected with Statham UC2 cells, amplified and digitized via A/D converters (DAS-1802 HC, Keithley Instruments, Munich) and recorded in parallel on chart recorders. Contractions are induced by addition of phenylephrine.
After several (generally 4) control cycles, the substance to be investigated is added in each further run in increasing dosage, and the level of the contraction achieved under the influence of the test substance is compared with the level of the contraction reached in the last preceding run. The concentration necessary to reduce the contraction reached in the preceding control by 50% is calculated from this (IC50). The standard application volume is 5 μl. The proportion of DMSO in the bath solution corresponds to 0.1%.

The target in assay [4] is recombinant soluble guanylate cyclase (sGC), haem-free (Rattus norvegicus (Rat), UniProt P20595). Description: Stimulation of recombinant soluble guanylate cyclase (sGC) in vitro, haem-free enzyme. Particulars: n = 5. It is filed as biochemical. As to the method:
Investigations on the stimulation of recombinant soluble guanylate cyclase (sGC) by the compounds according to the invention with and without sodium nitroprusside, and with and without the haem-dependent sGC inhibitor 1H-1,2,4-oxadiazolo[4,3a]quinoxalin-1-one (ODQ), are carried out by the method described in detail in the following reference: M. Hoenicka, E. M. Becker, H. Apeler, T. Sirichoke. H. Schroeder, R. Gerzer and J.-P. Stasch, “Purified soluble guanylyl cyclase expressed in a baculovirus/Sf9 system: Stimulation by YC-1, nitric oxide, and […]”, J. Mol. Med. 77 (1999), 14-23. The haem-free guanylate cyclase is obtained by adding Tween 20 to the sample buffer (0.5% in the final concentration).
(§1) The activation of sGC by a test substance is reported as x-fold stimulation of the basal activity.

The target in assay [5] is recombinant soluble guanylate cyclase (sGC), haem-containing (Rattus norvegicus (Rat), UniProt P20595). Description: Stimulation of recombinant soluble guanylate cyclase (sGC) in vitro, haem-containing enzyme. It counts as biochemical. Particulars: for Stimulation (x-fold) of haem-containing sGC, basal: n = 5.
From the text: Hoenicka, E. M. Becker, H. Apeler, T. Sirichoke. H. Schroeder, R. Gerzer and J.-P. Stasch, “Purified soluble guanylyl cyclase expressed in a baculovirus/Sf9 system: Stimulation by YC-1, nitric oxide, and […]”, J. Mol. Med. 77 (1999), 14-23. The haem-free guanylate cyclase is obtained by adding Tween 20 to the sample buffer (0.5% in the final concentration).
as §1

pEC50, pIC50: −log10 of the molar value.

recombinant soluble guanylate cyclase (sGC), haem-free, sequence (P20595 whole entry): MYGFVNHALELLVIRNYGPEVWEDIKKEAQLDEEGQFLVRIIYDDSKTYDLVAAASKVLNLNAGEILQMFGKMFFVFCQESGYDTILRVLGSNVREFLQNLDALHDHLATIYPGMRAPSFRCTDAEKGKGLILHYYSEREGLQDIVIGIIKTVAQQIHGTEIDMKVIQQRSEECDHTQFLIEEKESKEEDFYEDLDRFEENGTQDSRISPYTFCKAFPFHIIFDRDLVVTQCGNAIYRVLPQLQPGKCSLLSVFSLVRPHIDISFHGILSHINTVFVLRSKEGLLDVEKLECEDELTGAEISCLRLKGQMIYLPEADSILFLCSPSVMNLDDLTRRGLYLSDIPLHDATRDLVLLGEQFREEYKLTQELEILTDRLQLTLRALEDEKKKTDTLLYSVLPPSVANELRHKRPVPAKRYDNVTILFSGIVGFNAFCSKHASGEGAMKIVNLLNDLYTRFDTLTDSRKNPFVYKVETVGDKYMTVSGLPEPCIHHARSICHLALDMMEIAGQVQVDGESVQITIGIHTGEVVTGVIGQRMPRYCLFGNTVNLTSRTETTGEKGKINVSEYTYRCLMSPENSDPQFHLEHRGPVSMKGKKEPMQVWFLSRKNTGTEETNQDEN
recombinant soluble guanylate cyclase (sGC), haem-free, sequence (P19686 whole entry partner): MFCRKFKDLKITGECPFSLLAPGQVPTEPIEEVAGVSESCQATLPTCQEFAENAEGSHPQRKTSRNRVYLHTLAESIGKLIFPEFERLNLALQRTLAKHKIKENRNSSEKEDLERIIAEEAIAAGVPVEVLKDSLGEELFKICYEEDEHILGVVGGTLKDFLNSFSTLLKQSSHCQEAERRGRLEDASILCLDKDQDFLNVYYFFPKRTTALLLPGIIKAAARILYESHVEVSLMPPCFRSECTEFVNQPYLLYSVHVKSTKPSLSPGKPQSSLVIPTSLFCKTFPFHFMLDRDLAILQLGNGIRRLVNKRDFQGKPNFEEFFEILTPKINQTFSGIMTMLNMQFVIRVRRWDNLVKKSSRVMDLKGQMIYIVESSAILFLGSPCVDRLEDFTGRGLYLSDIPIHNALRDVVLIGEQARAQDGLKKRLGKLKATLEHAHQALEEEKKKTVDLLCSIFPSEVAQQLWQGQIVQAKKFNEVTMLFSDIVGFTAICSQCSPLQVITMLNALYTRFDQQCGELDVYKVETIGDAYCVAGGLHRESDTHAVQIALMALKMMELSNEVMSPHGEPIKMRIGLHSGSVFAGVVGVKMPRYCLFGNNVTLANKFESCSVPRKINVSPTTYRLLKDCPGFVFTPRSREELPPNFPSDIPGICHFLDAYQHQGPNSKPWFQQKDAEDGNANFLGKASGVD
recombinant soluble guanylate cyclase (sGC), haem-containing, sequence (P20595 whole entry): as the sequence (P20595 whole entry) above
recombinant soluble guanylate cyclase (sGC), haem-containing, sequence (P19686 whole entry partner): as the sequence (P19686 whole entry partner) above
soluble guanylate cyclase (sGC), sequence (P20595 whole entry): as the sequence (P20595 whole entry) above
soluble guanylate cyclase (sGC), sequence (P19686 whole entry partner): as the sequence (P19686 whole entry partner) above

On to `CC(C)C(C)(CC(=O)O)c1ccc(Cl)c(NC(=O)[C@H](c2ccc(Cl)cc2)[C@@H](C)C(F)(F)F)c1` (single isomer, unassigned) [Example 3], for which the minimal effective concentration in assay [1] was determined as 0.0003 µM. Further, in assay [2], the “MEC (minimum effective concentration), activating action at the sGC enzyme” value (from here on “MEC (minimum effective concentration)”) came out at 1 nM and the pEC50 was 7.43. Further, the pIC50 in assay [3] was 6.10.

Turning to `C[C@H]([C@H](C(=O)Nc1cc(C(CC(=O)O)C2CC2)ccc1Cl)c1ccc(Cl)cc1)C(F)(F)F` (single isomer, unassigned; (+)) [Example 22], the “Stimulation (x-fold) of haem-free sGC, basal” value in assay [4] (0.01 μM Example 22) turned out to be 1.2 ± 0.1 x-fold; in assay [4] (0.1 μM Example 22), 1.6 ± 0.5 x-fold; in assay [4] (1.0 μM Example 22), 4.9 ± 1.5 x-fold; in assay [4] (10 μM Example 22), 14.2 ± 2.0 x-fold. Also, in assay [1], the minimal effective concentration turned out to be 0.0018 µM. Besides, in assay [2], the “MEC (minimum effective concentration)” value was found to be 2.4 nM. For the same compound, the pEC50 in assay [2] is 7.17. Moreover, the “Stimulation (x-fold) of haem-containing sGC, +0.01 μM DEA/NO” value was 4.4 ± 1.3 x-fold in assay [5] (0.01 μM Example 22 + 0.01 μM DEA/NO), 3.4 ± 0.9 x-fold in assay [5] (0.1 μM Example 22 + 0.01 μM DEA/NO), 4.4 ± 1.4 x-fold in assay [5] (1.0 μM Example 22 + 0.01 μM DEA/NO) and 7.8 ± 2.5 x-fold in assay [5] (10 μM Example 22 + 0.01 μM DEA/NO). Also, the “Stimulation (x-fold) of haem-containing sGC, +10 μM ODQ” value in assay [5] (0.01 μM Example 22 + 10 μM ODQ) came out at 5.7 ± 1.6 x-fold; in assay [5] (0.1 μM Example 22 + 10 μM ODQ), 6.1 ± 1.7 x-fold; in assay [5] (1.0 μM Example 22 + 10 μM ODQ), 8.4 ± 2.2 x-fold; in assay [5] (10 μM Example 22 + 10 μM ODQ) it was 18.3 ± 5.4 x-fold. Besides, the “Stimulation (x-fold) of haem-containing sGC, basal” value was 1.6 ± 0.3 x-fold in assay [5] (0.01 μM Example 22), 1.6 ± 0.5 x-fold in assay [5] (0.1 μM Example 22), 2.4 ± 1.0 x-fold in assay [5] (1.0 μM Example 22) and 4.9 ± 1.2 x-fold in assay [5] (10 μM Example 22). Besides, the “Combination with the NO donor DEA/NO: synergistic effect on sGC stimulation” value in assay [5] (haem-containing sGC, combination with DEA/NO) was “no synergistic effect”. Moreover, the “Effect of the haem-dependent sGC inhibitor ODQ on the sGC activation” value in assay [5] (haem-containing sGC, with ODQ) was “not blocked”. In addition, the pIC50 in assay [3] was 6.86.

Consider `CC(C)c1ccc([C@@H](C(=O)Nc2cc(C(CC(=O)O)C(C)C)ccc2Cl)[C@@H](C)C(F)(F)F)cc1` (stereo partly drawn) [Example 10], for which, in assay [1], the minimal effective concentration was 0.0003 µM. In assay [2], the “MEC (minimum effective concentration)” value turned out to be 0.5 nM and the pEC50 was 8.00. In assay [3], this compound showed a pIC50 of 6.88.

For `CC(C)C(CC(=O)O)c1ccc(Cl)c(NC(=O)[C@H](c2ccc(C(C)(C)C)cc2)[C@@H](C)C(F)(F)F)c1` (stereo partly drawn) [Example 14], the minimal effective concentration in assay [1] is 0.0003 µM. In assay [2], the “MEC (minimum effective concentration)” value is reported as 0.5 nM and the pEC50 is 8.08. The compound also showed a pIC50 in assay [3] of 6.57.

In the case of `Cc1ccc([C@@H](C(=O)Nc2cc(C(CC(=O)O)C(C)C)ccc2Cl)[C@@H](C)C(F)(F)F)cc1` (stereo partly drawn) [Example 16], the minimal effective concentration in assay [1] turned out to be 0.003 µM. In assay [3], this compound gave a pIC50 of 6.12.
